Laboratory results taken from patent US9255094B2, “Pyrido[4,3-B]indoles and methods of use” (Medivation Technologies, Inc., priority 2009, dated 2016).

Biological target: T1, human recombinant serotonin (5-Hydroxytryptamine) 5-HT2A receptor (Homo sapiens, UniProt P28223)
T1 construct: expressed in transfected cells; host or cells: Chinese hamster ovary (CHO-K1) cells
Assay: Serotonin 5-HT2A radioligand binding assay ([3H]Ketanserin)
Conditions: 0.5 nM [3H]Ketanserin, CHO-K1 cells; for inhibition at 1 µM: compound at 1 μM, read-out: Percent Inhibition of ligand binding, Serotonin (1 μM) 5-HT2A; for inhibition at 0.1 µM: compound at 0.1 μM, read-out: Percent Inhibition of ligand binding, Serotonin (0.1 μM) 5-HT2A
Experimental: Compounds of the invention were incubated with 0.5 nM [^3H]Ketanserin for 60 min at 25° C. Non-specific binding was estimated in the presence of 1 μM Mianserin. Receptor proteins were filtered and washed, the filters were then counted to determine [^3H]Ketanserin specifically bound. Compounds were screened at 1 μM or lower, using 1% DMSO as vehicle. Biochemical assay results are presented as the percent inhibition of specific binding in Table 4.

T1 sequence (P28223 whole entry): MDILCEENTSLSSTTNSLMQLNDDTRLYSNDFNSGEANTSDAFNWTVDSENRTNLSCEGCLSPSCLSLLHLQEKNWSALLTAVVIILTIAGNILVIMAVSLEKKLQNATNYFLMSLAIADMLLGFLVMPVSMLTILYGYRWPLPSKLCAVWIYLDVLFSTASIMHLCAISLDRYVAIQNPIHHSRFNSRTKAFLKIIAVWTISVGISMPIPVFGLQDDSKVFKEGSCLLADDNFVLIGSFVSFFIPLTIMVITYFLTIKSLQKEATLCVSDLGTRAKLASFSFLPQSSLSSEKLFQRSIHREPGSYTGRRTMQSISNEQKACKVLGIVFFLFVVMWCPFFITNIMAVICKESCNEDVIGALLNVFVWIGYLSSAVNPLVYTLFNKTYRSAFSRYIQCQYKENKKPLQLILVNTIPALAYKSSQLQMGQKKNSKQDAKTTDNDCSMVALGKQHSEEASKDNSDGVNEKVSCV

| Structure (SMILES) | inhibition at 1 µM | inhibition at 0.1 µM |
| --- | --- | --- |
| CN1CCc2c(c3cc(Cl)ccc3n2CC(O)(c2ccc(F)cc2)C2CCC2)C1 (stereo not drawn) [Compound 1-6, 2-(8-chloro-2-methyl-3,4-dihydro-1H-pyrido[4,3-b]indol-5(2H)-yl)-1-cyclobutyl-1-(4-fluorophenyl)ethanol] | 97% | – |
| CN1CCc2c(c3cc(Cl)ccc3n2CC(C)(O)c2ccncn2)C1 (stereo not drawn) [Compound 1-26, 1-(8-chloro-2-methyl-3,4-dihydro-1H-pyrido[4,3-b]indol-5(2H)-yl)-2-(pyrimidin-4-yl)propan-2-ol] | – | 23% |
| CC(C)C(O)(Cn1c2c(c3cc(Cl)ccc31)CN(C)CC2)c1ccncc1 (stereo not drawn) [Compound 1-21, 1-(8-chloro-2-methyl-3,4-dihydro-1H-pyrido[4,3-b]indol-5(2H)-yl)-3-methyl-2-(pyridin-4-yl)butan-2-ol] | – | 68% |
| COc1ccc(C(C)(O)Cn2c3c(c4cc(Cl)ccc42)CN(C)CC3)cc1F (stereo not drawn) [Compound 1-59, 1-(8-chloro-1,2,3,4-tetrahydro-2-methylpyrido[4,3-b]indol-5-yl)-2-(3-fluoro-4-methoxyphenyl)propan-2-ol] | 96% | – |
| CN1CCc2c(c3cccc(F)c3n2CC(C)(O)c2ccncc2)C1 (stereo not drawn) [Compound 1-13, 1-(6-fluoro-2-methyl-3,4-dihydro-1H-pyrido[4,3-b]indol-5(2H)-yl)-2-(pyridin-4-yl)propan-2-ol] | 82% | – |
| Cc1ccc2c(c1)c1c(n2CC(C)(O)c2cnccn2)CCN(C)C1 (stereo not drawn) [Compound 1-28, 1-(2,8-dimethyl-3,4-dihydro-1H-pyrido[4,3-b]indol-5(2H)-yl)-2-(pyrazin-2-yl)propan-2-ol] | – | 30% |
| Cc1ccc2c(c1)c1c(n2CC(C)(O)c2ccncc2)CCN(C)C1 (stereo not drawn) [Compound 1-52, 1-(1,2,3,4-tetrahydro-2,8-dimethylpyrido[4,3-b]indol-5-yl)-2-(pyridin-4-yl)propan-2-ol] | 88% | – |
| CCC(O)(Cn1c2c(c3cc(Cl)ccc31)CN(C)CC2)c1ccncc1 (stereo not drawn) [Compound 1-23, 1-(8-chloro-2-methyl-3,4-dihydro-1H-pyrido[4,3-b]indol-5(2H)-yl)-2-(pyridin-4-yl)butan-2-ol] | – | 62% |
| Cc1ccc2c(c1)c1c(n2CC(C)(O)c2ccncn2)CCN(C)C1 (stereo not drawn) [Compound 1-25, 1-(2,8-dimethyl-3,4-dihydro-1H-pyrido[4,3-b]indol-5(2H)-yl)-2-(pyrimidin-4-yl)propan-2-ol] | – | 17% |
| CN1CCc2c(c3ccccc3n2CC(C)(O)c2ccncc2)C1 (stereo not drawn) [Compound 1-14, 1-(2-methyl-3,4-dihydro-1H-pyrido[4,3-b]indol-5(2H)-yl)-2-(pyridin-4-yl)propan-2-ol] | 74% | – |
| Cc1ccc2c(c1)c1c(n2CC(O)(c2ccncc2)C(C)C)CCN(C)C1 (stereo not drawn) [Compound 1-22, 1-(2,8-dimethyl-3,4-dihydro-1H-pyrido[4,3-b]indol-5(2H)-yl)-3-methyl-2-(pyridin-4-yl)butan-2-ol] | – | 71% |
| COc1ccc2c(c1)c1c(n2CC(C)(O)c2ccncc2)CCN(C)C1 (stereo not drawn) [Compound 1-16, 1-(8-methoxy-2-methyl-3,4-dihydro-1H-pyrido[4,3-b]indol-5(2H)-yl)-2-(pyridin-4-yl)propan-2-ol] | 50% | – |
| CN1CCc2c(c3c(Cl)c(Cl)ccc3n2CC(C)(O)c2ccncc2)C1 (stereo not drawn) [Compound 1-18, 1-(8,9-dichloro-2-methyl-3,4-dihydro-1H-pyrido[4,3-b]indol-5(2H)-yl)-2-(pyridin-4-yl)propan-2-ol] | 71% | – |
| CN1CCc2c(c3cc(Cl)ccc3n2CC(C)(O)c2cnccn2)C1 (stereo not drawn) [Compound 1-27, 1-(8-chloro-2-methyl-3,4-dihydro-1H-pyrido[4,3-b]indol-5(2H)-yl)-2-(pyrazin-2-yl)propan-2-ol] | – | 40% |
| CCC(O)(Cn1c2c(c3cc(C)ccc31)CN(C)CC2)c1ccc(F)cc1 (stereo not drawn) [Compound 1-5, 1-(2,8-dimethyl-3,4-dihydro-1H-pyrido[4,3-b]indol-5(2H)-yl)-2-(4-fluorophenyl)butan-2-ol] | 102% | – |
